Measured values: article PMC6720600, “Discovery of Novel TASK-3 Channel Blockers Using a Pharmacophore-Based Virtual Screening” (International Journal of Molecular Sciences, 2019)

Experiments:
Assay type in all cases: cell-based
TASK-3 = target: T1, TASK-3 (Homo sapiens, UniProt Q9NPC2); assay: whole-cell patch clamp, HEK-293 cells transfected with TASK-3
T1 construct: gene KCNK9

TASK-1 [1] = target: T2, TASK-1 (Homo sapiens, UniProt O14649); assay: dose-response of TASK-1 channel inhibition (electrophysiology; expression details for TASK-1 not given)
T2 construct: gene KCNK3
T2 sequence (O14649 whole entry): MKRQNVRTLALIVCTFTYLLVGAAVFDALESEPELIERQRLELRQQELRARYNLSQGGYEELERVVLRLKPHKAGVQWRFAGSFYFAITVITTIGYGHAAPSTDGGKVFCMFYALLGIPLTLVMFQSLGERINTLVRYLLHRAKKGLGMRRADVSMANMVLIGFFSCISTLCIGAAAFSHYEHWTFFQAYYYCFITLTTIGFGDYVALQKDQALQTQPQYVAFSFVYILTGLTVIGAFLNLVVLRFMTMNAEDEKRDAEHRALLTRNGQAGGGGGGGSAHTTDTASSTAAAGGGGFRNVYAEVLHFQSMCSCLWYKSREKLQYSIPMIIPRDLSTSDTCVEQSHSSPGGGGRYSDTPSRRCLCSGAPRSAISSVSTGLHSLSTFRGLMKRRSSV

TASK-1 [2] = target: T2, TASK-1; assay: dose-response curve on human TASK-1 (electrophysiology; value not given)

T1 sequence (Q9NPC2 whole entry): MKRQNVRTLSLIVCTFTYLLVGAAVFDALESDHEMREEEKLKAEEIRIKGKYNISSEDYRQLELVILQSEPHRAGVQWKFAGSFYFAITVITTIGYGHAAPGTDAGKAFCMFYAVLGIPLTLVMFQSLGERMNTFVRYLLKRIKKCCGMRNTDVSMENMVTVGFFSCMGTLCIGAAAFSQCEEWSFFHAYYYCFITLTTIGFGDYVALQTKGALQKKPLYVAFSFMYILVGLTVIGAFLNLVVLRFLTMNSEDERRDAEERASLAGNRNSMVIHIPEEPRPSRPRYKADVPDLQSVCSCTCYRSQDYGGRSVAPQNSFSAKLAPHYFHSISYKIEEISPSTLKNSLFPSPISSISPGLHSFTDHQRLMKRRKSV

IC50 (TASK-3) [µM]	IC50 (TASK-1 [1]) [µM]	Compound	IC50 (TASK-1 [2])
14.2 ± 3.4	21.2 ± 5.5	CC(C(=O)Nc1ccc(O)cc1F)c1cc2cccc(NC(=O)c3ccc(O)cc3)c2o1 (stereo not shown) [DR16.1]	
56.8 ± 3.9		CC(C(=O)Nc1ccc(O)cc1F)c1cc2ccccc2o1 (stereo not shown) [DR16]	Lead ligand DR16 blocks human TASK channels.
